Experimental data from patent US20090258873A1, “Novel tetrahydropyridothiophenes” (priority 2005, published 2009).

Assays:
[1] = tested on: RKO (RKOp27) human colon adenocarcinoma cells; experiment: Alamar Blue cell viability assay, anti-proliferative/cytotoxic activity on proliferating RKOp27 cells; assay type: cell-based; conditions: no Ponasterone A, 72 hours incubation, read-out: IC50 RKO p27 uninduced (proliferating)
Description: The anti-proliferative I cytotoxic activity of the compounds described herein, can be tested on subclones of RKO (RKOp27) human colon adenocarcinoma cells (Schmidt et al., Oncogene 19, 2423-2429; 2000) using the Alamar Blue cell viability assay (described in O'Brien et al. Eur J Biochem 267, 5421-5426, 2000). The compounds are dissolved as 20 mM solutions in dimethylsulfoxide (DMSO) and subsequently diluted in semi-logarithmic steps. DMSO dilutions are further diluted 1:100 into Dulbecco's modified Eagle's medium (DMEM) containing 10% fetal calf serum to a final concentration twice as much as the final concentration in the test. RKO subclones are seeded into 96 well flat bottom plates at a density of 5000 cells per well in a volume of 50 μl per well. 24 hours after seeding the 50 μl each of the compound dilutions in DMEM medium are added into each well of the 96 Well plate. Each compound dilution is tested as quadruplicates. Wells containing untreated control cells are filled with 50 μl DMEM medium containing 1% DMSO. The cells are then incubated with the substances for 72 hours at 37° C. in a hunified atmosphere containing 5% carbon dioxide. To determine the viability of the cells, 10 μl of an Alamar Blue solution (Biosource) are added and the fluorescence is measured at an extinction of 544 nm and an emission of 590 nm. For the calculation of the cell viability the emission value from untreated cells is set as 100% viability and the emission rates of treated cells are set in relation to the values of untreated cells. Viabilities are expressed as % values.
The corresponding IC50 values of the compounds for anti-proliferative/cytotoxic activity are determined from the concentration-effect curves.
Representative IC50 values for anti-proliferation/cytotoxicity determined in the mentioned assay follow from the following table A, in which the numbers of the compounds correspond to the numbers of the examples.

[2] = tested on: RKO colon adenocarcinoma cells (RKOp27) arrested by ectopic p27Kip1; experiment: Alamar Blue cell viability assay on RKOp27 cells arrested by p27Kip1 expression induced with Ponasterone A (cell cycle specific mode of action); assay type: cell-based; conditions: Homo sapiens, RKOp27 cells arrested by p27Kip1 induced with 10 μM Ponasterone A, 72 hours incubation, read-out: IC50 RKO p27 induced (arrested)
Description: To determine the cell cycle specific mode of action, subclones of RKO colon adenocarcinoma cells (RKOp27 or RKOp21 as described by Schmidt et al. in Oncogene 19, 2423-2429; 2000) are seeded into 96 well flat bottom plates at a density of 15000 cells per well in a volume of 50 μl per well in DMEM growth medium with 10% FCS containing 10 μM Ponasterone A. 24 hours after seeding the 50 μl each of the compound dilutions in DMEM medium are added into each well of the 96 Well plate. Each compound dilution is tested as quadruplicates. Wells containing untreated control cells are filled with 50 μl DMEM medium containing 1% DMSO. The cells are then incubated with the substances for 72 hours at 37° C. in a humidified atmosphere containing 5% carbon dioxide. To determine the viability of the cells, 10 μl of an Alamar Blue solution (Biosource) are added and the fluorescence was measured at an extinction of 544 nm and an emission of 590 nm. For the calculation of the cell viability the emission value from untreated cells is set as 100% viability and the emission rates of treated cells are set in relation to the values of untreated cells. Viabilities are expressed as % values. Viability is compared of proliferating cells grown in the absence of the inducer Ponasterone A, versus viability of cells arrested by the expression of ectopic p27Kip1 induced by Ponasterone A.

Row | SMILES | IC50 [2] [µM] | IC50 [1] [µM]
1 | N#Cc1c(NC(=O)CCc2ccco2)sc2c1CCN(C(=O)Cc1cccnc1)C2 [Example 11, N-[3-Cyano-6-(2-pyridin-3-yl-ethanoyl)-4,5,6,7-tetrahydro-thieno[2,3-c]pyridin-2-yl]-3-furan-2-yl-propionamide] | > 100 | ≤ 0.3
2 | CC(CC(=O)Nc1sc2c(c1C#N)CCN(C(=O)Cc1ccncc1)C2)c1ccccc1 (racemic) [Example 24, (RS)—N-[3-Cyano-6-(2-pyridin-4-yl-ethanoyl)-4,5,6,7-tetrahydro-thieno[2,3-c]pyridin-2-yl]-3-phenyl-butyramide] | > 100 | ≤ 0.3
3 | N#Cc1c(NC(=O)CCC2CCCCC2)sc2c1CCN(C(=O)Cc1ccccn1)C2 [Example 53, N-[3-Cyano-6-(2-pyridin-2-yl-ethanoyl)-4,5,6,7-tetrahydro-thieno[2,3-c]pyridin-2-yl]-3-cyclohexyl-propionamide] | > 100 | ≤ 0.3
4 | CCCC(=O)N1CCc2c(sc(NC(=O)CCc3ccccc3)c2C#N)C1 [Example 28, N-(6-Butyryl-3-cyano-4,5,6,7-tetrahydro-thieno[2,3-c]pyridin-2-yl)-3-phenyl-propionamide] | > 100 | ≤ 0.3
5 | CC(CC(=O)Nc1sc2c(c1C#N)CCN(C(=O)Cn1ccnc1)C2)c1ccccc1 (racemic) [Example 26] | > 100 | 0.3 to 2
6 | Cc1cn(CC(=O)N2CCc3c(sc(NC(=O)CCc4ccccc4)c3C#N)C2)cn1 [Example 41, N-{3-Cyano-6-[2-(4-methyl-imidazol-1-yl)-ethanoyl]-4,5,6,7-tetrahydro-thieno[2,3-c]pyridin-2-yl}-3-phenyl-propionamide] | > 100 | ≤ 0.3
7 | N#Cc1c(NC(=O)CCc2ccccc2)sc2c1CCN(C(=O)CCc1ccncc1)C2 [Example 39, N-[3-Cyano-6-(3-pyridin-4-yl-propanoyl)-4,5,6,7-tetrahydro-thieno[2,3-c]pyridin-2-yl]-3-phenyl-propionamide] | > 100 | ≤ 0.3
8 | CC(CC(=O)Nc1sc2c(c1C#N)CCN(C(=O)CCn1ccnc1)C2)c1ccccc1 (racemic) [Example 31] | > 100 | 0.3 to 2
9 | CC(CC(=O)Nc1sc2c(c1C#N)CCN(C(=O)CCc1cccnc1)C2)c1ccccc1 (racemic) [Example 25, (RS)—N-[3-Cyano-6-(3-pyridin-3-yl-propanoyl)-4,5,6,7-tetrahydro-thieno[2,3-c]pyridin-2-yl]-3-phenyl-butyramide] | > 100 | 0.3 to 2
10 | CC(CC(=O)Nc1sc2c(c1C#N)CCN(C(=O)Cc1cccnc1)C2)c1ccccc1 (racemic) [Example 23, (RS)—N-[3-Cyano-6-(2-pyridin-3-yl-ethanoyl)-4,5,6,7-tetrahydro-thieno[2,3-c]pyridin-2-yl]-3-phenyl-butyramide] | > 100 | ≤ 0.3
11 | N#Cc1c(NC(=O)CCc2ccccc2)sc2c1CCN(C(=O)Cc1ccccn1)C2 [Example 3, N-[3-Cyano-(2-pyridin-2-yl-ethanoyl)-4,5,6,7-tetrahydro-thieno[2,3-]pyridin-2-yl]-3-phenyl-propionamide] | > 100 | ≤ 0.3
12 | CC(CC(=O)Nc1sc2c(c1C#N)CCN(C(=O)CCc1nccn1C)C2)c1ccccc1 (racemic) [Example 34, (RS)—N-{3-Cyano-6-[3-(1-methyl-1H-imidazol-2-yl)-propanoyl]-4,5,6,7-tetrahydro-thieno[2,3-c]pyridin-2-yl}-3-phenyl-butyramide] | ≥ 10 | ≤ 0.3
13 | Cc1nc2ccccc2n1CCC(=O)N1CCc2c(sc(NC(=O)CCc3ccccc3)c2C#N)C1 [Example 21] | > 100 | 0.3 to 2
14 | CC(CC(=O)Nc1sc2c(c1C#N)CCN(C(=O)CCc1ccncc1)C2)c1ccccc1 (racemic) [Example 36, (RS)—N-[3-Cyano-6-(3-pyridin-4-yl-propanoyl)-4,5,6,7-tetrahydro-thieno[2,3-c]pyridin-2-yl]-3-phenyl-butyramide] | ≥ 10 | 0.3 to 2
15 | Cc1cn(CC(=O)N2CCc3c(sc(NC(=O)CCc4ccccc4)c3C#N)C2)c(C)n1 [Example 43, N-{3-Cyano 6-[2-(2,4-dimethyl-imidazol-1-yl)-ethanoyl]-4,5,6,7-tetrahydro-thieno[2,3-c]pyridin-2-yl}-3-phenyl-propionamide] | ≥ 40 | 0.3 to 2
16 | COCC(=O)N1CCc2c(sc(NC(=O)CCc3ccccc3)c2C#N)C1 [Example 4, N-[3-Cyano-6-(2-methoxy-ethanoyl)-4,5,6,7-tetrahydro-thieno[2,3-c]pyridin-2-yl]-3-phenyl-propionamide] | > 100 | ≤ 0.3
17 | N#Cc1c(NC(=O)CCc2ccccc2)sc2c1CCN(C(=O)CCN1CCOCC1)C2 [Example 18, N-[3-Cyano-6-(3-morpholin-4-yl-propanoyl)-4,5,6,7-tetrahydro-thieno[2,3-c]pyridin-2-yl]-3-phenyl-propionamide] | > 100 | 0.3 to 2

More lines, main results first:

Row | IC50 [2] [µM] | SMILES | IC50 [1] [µM]
18 | ≥ 10 | Cc1cn(CCC(=O)N2CCc3c(sc(NC(=O)CCc4ccccc4)c3C#N)C2)cn1 [Example 45, N-[3-Cyano-6-[3-(4-methyl-imidazol-1-yl)-propanoyl]-4,5,6,7-tetrahydro-thieno[2,3-c]pyridin-2-yl]-3-phenyl-propionamide] | 0.3 to 2
19 | ≥ 40 | CN1CCN(CCC(=O)N2CCc3c(sc(NC(=O)CCc4ccccc4)c3C#N)C2)CC1 [Example 17, N-[3-Cyano-6-[3-(4-methyl-piperazin-1-yl)-propanoyl]-4,5,6,7-tetrahydro-thieno[2,3-c]pyridin-2-yl]-3-phenyl-propionamide] | 0.3 to 2
20 | > 100 | N#Cc1c(NC(=O)CCc2ccccc2)sc2c1CCN(C(=O)Cn1ccnc1)C2 [Example 19, N-[3-Cyano-6-(2-imidazol-1-yl-ethanoyl)-4,5,6,7-tetrahydro-thieno[2,3-c]pyridin-2-yl]-3-phenyl-propionamide] | 0.3 to 2
21 | > 100 | N#Cc1c(NC(=O)CCc2ccccc2)sc2c1CCN(C(=O)CCn1ccnc1)C2 [Example 16, N-[3-Cyano-6-(3-imidazol-1-yl-propanoyl)-4,5,6,7-tetrahydro-thieno[2,3-c]pyridin-2-yl]-3-phenyl-propionamide] | ≤ 0.3
22 | ≥ 10 | Cc1cn(CC(=O)N2CCc3c(sc(NC(=O)CC(C)c4ccccc4)c3C#N)C2)c(C)n1 (racemic) [Example 42, (RS)—N-{3-Cyano-6-[2-(2,4-dimethyl-midazol-1-yl)-ethanoy]-4,5,6,7-tetrahydro-thieno[2,3-c]pyridin-2-yl}-3-phenyl-butyramide] | 0.3 to 2
23 | > 100 | COCC(=O)N1CCc2c(sc(NC(=O)CCc3ccco3)c2C#N)C1 [Example 13, N-[3-Cyano-6-(2-methoxy-ethanoyl)-4,5,6,7-tetrahydro-thieno[2,3-c]pyridin-2-yl]-3-furan-2-yl-propionamide] | ≤ 0.3
24 | ≥ 10 | Cc1nccn1CCC(=O)N1CCc2c(sc(NC(=O)CCc3ccccc3)c2C#N)C1 [Example 33, N-{3-Cyano-6-[3-(2-methyl-imidazol-1-yl)propanoyl]-4,5,6,7-tetrahydro-thieno[2,3-c]pyridin-2-yl}-3-phenyl-propionamide] | 0.3 to 2
25 | > 100 | COCCOCC(=O)N1CCc2c(sc(NC(=O)CCc3ccccc3)c2C#N)C1 [Example 5] | 0.3 to 2
26 | > 100 | Cc1nccn1CC(=O)N1CCc2c(sc(NC(=O)CCc3ccccc3)c2C#N)C1 [Example 38, N-{3-Cyano-6-[2-(2-methyl-imidazol-1-yl)-ethanoyl]-4,5,6,7-tetrahydro-thieno[2,3-c]pyridin-2-yl}-3-phenyl-propionamide] | ≤ 0.3
